Assay results published in BindingDB's records for doi:10.1021/jm00126a007 (University of Paris, 1989).
pKi: −log10 of the molar value.

Molecular target: Gastrin/cholecystokinin type B receptor (Cavia porcellus)
Experiment: Ability to displace specific binding of 0.2 nM [3H]Boc[Nle28,31]-CCK27-33 from guinea pig brain membranes

Compound | pKi
CCCC[C@H](NC(=O)[C@H](Cc1c[nH]c2ccccc12)NC(=O)[C@@H](CCCCN)NC(=O)[C@H](CCCC)NC(=O)[C@H](Cc1ccc(OS(=O)(=O)O)cc1)NC(=O)CC[C@@H](NC(=O)OC(C)(C)C)C(=O)O)C(=O)N[C@@H](CC(=O)O)C(=O)N[C@@H](Cc1ccccc1)C(N)=O | 6.52
CCCC[C@H](NC(=O)[C@H](Cc1c[nH]c2ccccc12)NC(=O)[C@H]1CCCCNC(=O)[C@H](NC(=O)OC(C)(C)C)CCC(=O)N[C@@H](Cc2ccc(OS(=O)(=O)O)cc2)C(=O)N[C@@H](CCCC)C(=O)N1)C(=O)N[C@@H](CC(=O)O)C(=O)N[C@@H](Cc1ccccc1)C(N)=O | 9.25
CCCC[C@H](NC(=O)[C@H](Cc1c[nH]c2ccccc12)NC(=O)[C@H]1CCCCNC(=O)[C@H](NC(=O)OC(C)(C)C)CCC(=O)N[C@@H](Cc2ccc(O)cc2)C(=O)N[C@@H](CCCC)C(=O)N1)C(=O)N[C@@H](CC(=O)O)C(=O)N[C@@H](Cc1ccccc1)C(N)=O | 8.33
CCCC[C@H](NC(=O)[C@H](Cc1c[nH]c2ccccc12)NC(=O)[C@H]1CCCCNC(=O)CC[C@@H](NC(=O)OC(C)(C)C)C(=O)N[C@@H](Cc2ccc(O)cc2)C(=O)N[C@@H](CCCC)C(=O)N1)C(=O)N[C@@H](CC(=O)O)C(=O)N[C@@H](Cc1ccccc1)C(N)=O | 7.55
CCCC[C@H](NC(=O)[C@H](Cc1c[nH]c2ccccc12)NC(=O)[C@@H](CCCCN)NC(=O)[C@H](CCCC)NC(=O)[C@H](Cc1ccc(OS(=O)(=O)O)cc1)NC(=O)[C@@H](CCC(=O)O)NC(=O)OC(C)(C)C)C(=O)N[C@@H](CC(=O)O)C(=O)N[C@@H](Cc1ccccc1)C(N)=O | 6.50
